We go through 10 compounds from patent US20110105959A1, “Novel Methods for Bone Treatment by Modulating an Arachidonic Acid Metabolic or Signaling Pathway” (ACCELALOX, INC., priority 2008, published 2011).

For test [1], the system named is closed femur fracture. The test is described as follows: Closed femur fracture healing in rats treated with 5-LO inhibitors (radiographs, torsional mechanical testing). The test is classed as in vivo, Sprague-Dawley rats. To be noted: for fracture bridging / healing on radiographs: Example 4, FIG. 8, NDGA 30 mg/kg or AA-861 5 mg/kg twice daily until day 21, 3 weeks of healing; for greater peak torque than vehicle treated rats: Example 4, FIG. 8D, torsional mechanical testing after 5 weeks of healing, NDGA 30 mg/kg, AA-861 5 mg/kg; for mode of femur failure in torsional mechanical testing: Example 4, after 5 weeks of healing. Here is the method: Sprague-Dawley rats (3 months old) underwent a standard closed femur fracture procedure as described in the art [Simon et al., Cyclo-oxygenase 2 function is essential for bone fracture healing. Journal of Bone and Mineral Research, 17: 963-976 (2002); Bonnarens and Einhorn, Production of a standard closed fracture in laboratory animal bone. Journal of Orthopaedic Research, 2: 97-101 (1984)]. The impending fracture was stabilized with an intramedullary stainless steel pin. Beginning 4 hours after fracture the rats were treated with 30 mg/kg of NDGA (nordihydrogaiaretic acid) in 1% methylcellulose (5-lipoxygenase inhibitor treatment group) or with carrier only (1% methylcellulose). The day after surgery and continuing until day 14 post-fracture, experimental rats were treated with 2 doses of NDGA (30 mg/kg), the first dose between […] and then again with another NDGA dose 8-10 hours later. Control rats were treated similarly but with carrier only (1% methylcellulose). Three weeks after fracture, the rats were sacrificed, the fractured femurs were harvested, and high resolution radiographs were made of the fractured femurs using a Packard Faxitron and Kodak MinR2000 mammography film. Two representative radiographs are shown in FIG. 7 for each treatment group: control and 5-lipoxygenase (5-LO) inhibitor treated.
Sprague-Dawley rats (3 months old) underwent a standard closed femur fracture procedure as described in the art (Simon et al., Cyclo-oxygenase 2 function is essential for bone fracture healing. Journal of Bone and Mineral Research, 17: 963-976 (2002); Bonnarens and Einhorn, Production of a standard closed fracture in laboratory animal bone. Journal of Orthopaedic Research, 2: 97-101 (1984)]. The impending fracture was stabilized with an intramedullary stainless steel pin. Beginning 4 hours after fracture the rats were treated with vehicle (1% methylcellulose) or inhibitors of 5-LO suspended in 1% methylcellulose. Inhibitor A (NDGA) was administered at 30 mg/kg and Inhibitor B (AA-861) was administered at 5 mg/kg. The day after surgery and continuing until day 21 post-fracture, experimental rats were treated with 2 doses of inhibitor (either A or B), the first dose between 8-10 AM and then again with another dose 8-10 hours later. Control rats were treated similarly but with carrier only (1% methylcellulose). Three weeks after fracture the rats were anesthetized and high resolution radiographs were made of the fractured femurs using a Packard Faxitron and Kodak MinR2000 mammography film (FIGS. 8A, 8B, and 8C). Five weeks after fracture the rats were sacrificed, femurs resected, and assayed for structural mechanical properties by torsional mechanical testing (FIG. 8D).

Test [2] concerns 8 mm diaphyseal segmental defect in the right femur. The test is described as follows: Femur segmental defect repaired with scaffold impregnated with calcium sulfate containing a leukotriene pathway modifier. To be noted: after 3 weeks of healing; local application in calcium sulfate, 1-5% w/w; FIG. 16. The test is classed as in vivo, Sprague-Dawley rats. An excerpt:
Male Sprague-Dawley rats underwent surgery during which an 8 mm diaphyseal, segmental defect in the right femur was made as described by Rai et al. [Combination of platelet-rich plasma with polycaprolactone-tricalcium phosphate scaffolds for segmental bone defect repair. Journal of Biomedical Materials Research […]:888-899 (2007)]. The defect was repaired with a polycaprolactone-tricalcium phosphate scaffold (8 mm long×3 mm diameter; Osteopore International, Singapore) or the scaffold impregnated with calcium sulfate containing a leukotriene pathway modifier. […] Journal of Medicinal Chemistry 43:721-735 (2000)]; and LY-255283 (1% w/w), a potent and specific leukotriene B4 receptor antagonist [Herron et al. Leukotriene B4 receptor antagonists: the LY255283 series of hydroxyacetophenones. Journal of Medicinal Chemistry 35:1818-1828 (1992)]. Healing of the segmental defects was assessed after 3 weeks of healing by radiographs (FIG. 16).

Test [3] deals with 5-lipoxygenase or LTA4 hydrolase activity measured by the level of LTB4 in platelet-rich plasma. The test is described as follows: Ex vivo treatment of platelet-rich plasma, leukotriene B4 levels by enzyme-linked immune-assay. The test is classed as cell-based, rat. To be noted: FIG. 9; 1 ug/ml; activated with thrombin and calcium chloride. An excerpt: Platelet-rich plasma is used clinically to augment fracture healing and other osteogenic processes [Wrotniak et al. Current opinion about using the platelet-rich gel in orthopaedics and trauma surgery. […] Platelet-rich plasma is enriched with platelets and white blood cells from whole blood by centrifugal separation. White blood cells, such as, macrophages, monocytes, and neutrophils, are a major source of 5-lipoxygenase activity [Woods et al. 5-lipoxygenase and 5-lipoxygenase-activating protein are localized in the nuclear envelope of activated human leukocytes.
Male Sprague-Dawley rats (450-500 g body weight) were used. Platelet-rich plasma was prepared as described previously using differential centrifugation [Gandhi et al. The effects of local platelet rich plasma delivery on diabetic fracture healing. […] Five minutes after drug treatment, the treated platelet-rich plasma was activated by addition of thrombin (100 units/ml) and calcium chloride (10 mg/ml) followed by incubation for 15 minutes at 37° C. The reaction was stopped and the platelet-rich plasma was separated by high-speed centrifugation (14,000 RPM). The supernatant was collected and assayed for leukotriene B4 levels using a commercial enzyme-linked immune-assay from Cayman Chemicals, Ann Arbor, Mich.

The subject of test [4] is critical-size (8 mm) femur segmental defect. The test is described as follows: Critical-size femur segmental defect repaired with scaffold laden with ex vivo treated bone marrow. The class given is in vivo, Sprague-Dawley rats. The following applies: for mineralized tissue in the femur segmental defect on radiographs: 2 weeks after implantation, marrow treated ex vivo, versus vehicle-bone marrow scaffold control; for bone remodeling at the fracture site compared to control rats: FIG. 10, bone marrow aspirate treated ex vivo prior to administration. Here is the method:
Critical-size (8 mm) segmental defects were made in the right femur of 450-500 g male Sprague-Dawley rats. The defects were repaired as described by Rai et al. [Combination of platelet-rich plasma with polycaprolactone-tricalcium phosphate scaffolds for segmental defect repair. Journal of Biomedical Materials Research 81A:888-899 (2007)] except the polycaprolactone-tricalcium phosphate scaffolds were filled with autologous bone marrow that was treated ex vivo as described below rather than with platelet-rich plasma.
Following induction of anesthesia, bone marrow was harvested from the left femur of each rat. A medial peripatellar incision was made to the left femur and the patella was dislocated laterally to provide access to the femoral condyles. Using an 18 gauge needle, a hole was drilled into the femoral canal and the bone marrow collected into the bore of the 18 gauge needle. The marrow was forced from the syringe needle into a small test tube using 100 μl of saline containing 20 units of heparin. The harvested marrow was then treated with the dimethyl sulfoxide (DMSO) or AA-861 (1 μl of 100 mg/ml in DMSO) which is a 5-LO inhibitor. After 5 minutes, 20 μl of a thrombin and CaCl2 solution (1,000 units thrombin per ml in 10% CaCl2) was added to each marrow sample. Each marrow sample was gently mixed and applied to a polycaprolactone-tricalcium phosphate scaffold that was set upright in a 0.2 ml tube. Each marrow-laden scaffold was incubated at room temperature for 10 minutes to allow clotting to occur and was then inserted into the femoral defects.
Critical-size femoral defects were made in male Sprague-Dawley rats as described above in EXAMPLE 7. The defects were treated with bone marrow laden scaffolds as described above. […] Journal of Medicinal Chemistry 43:721-735 (2000)] (FIG. 10C), or with (c) LY-255283 (5 μl of a 1 mg/ml solution in DMSO) which is a leukotriene B4 receptor antagonist [Herron et al. Leukotriene B4 receptor antagonists: the LY255283 series of hydroxyacetophenones. Journal of Medicinal Chemistry 35:1818-1828 (1992)] (FIG. 10D).

Test [5] has as its system Saos-2 cells. The following applies: in vitro; LTB4 at higher concentration (0.3-1 micromolar); cited from earlier work.
For test [6], the system named is fetal rat calvaria (osteoblast) cells. To be noted: in vitro; cited from earlier work.
Test [7] concerns mouse calvaria. To be noted: in vitro organ culture; cited from earlier work.
The test system of test [8] is G292 cells. The following applies: in vitro; LTB4 at higher concentration (0.3-1 micromolar); cited from earlier work.
Test [9] concerns primary rat calvaria (osteoblast) cultures. The following applies: in vitro; cited from earlier work.

As for `CC1=C(C)C(=O)C(CCCCC#CCCCC#CCO)=C(C)C1=O` [AA-861, 2-(12-hydroxydodeca-5,10-diynyl)-3,5,6-trimethyl-1,4-benzoquinone], in [1], the “fracture bridging / healing on radiographs” value is recorded as “fractures healing faster”, the “greater peak torque than vehicle treated rats” value came out at 53% and the “mode of femur failure in torsional mechanical testing” value is on record as “failed as boney unions”. Besides, the “bone formation in the segmental defect region on radiographs compared to scaffold-only group” value (“bone formation … to scaffold-only group” below) in [2] is listed as “significantly more bone formation”. Besides, the “activity of 5-lipoxygenase or LTA4 hydrolase, measured by the level of the LTB4 metabolite, in platelet-rich plasma” value (shortened to “activity … in platelet-rich plasma”) in test [3] is reported as “significantly reduces”. Moreover, in test [4], the “mineralized tissue in the femur segmental defect on radiographs” value (from here on “mineralized tissue”) is “more extensive mineralized tissue” and the “bone remodeling at the fracture site compared to control rats” value (“bone remodeling … compared to control rats” for short) was “more extensive bone remodeling”. For the same compound, the Saos-2 cell proliferation entry in test [5] is listed as “no effect”.
On to `CC(C)c1ccc2c(c1)c(SC(C)(C)C)c(CC(C)(C)C(=O)O)n2Cc1ccc(Cl)cc1` [MK-886, 3-[1-(4-chlorobenzyl)-3-t-butyl-thio-5-isopropylindol-2-yl]-2,2-dimethylpropanoic acid], for which, in [2], the “bone formation … to scaffold-only group” value is “significantly more bone formation”. Besides, the “activity … in platelet-rich plasma” value in test [3] was “significantly reduces”.
On to `CCCCC/C=C\C\C=C/C=C/C=C/[C@@H](SC[C@H](N)C(=O)NCC(=O)O)[C@@H](O)CCCC(=O)O` [LTD4, leukotriene D4], for which, in test [6], the alkaline phosphatase activity entry is recorded as “no effect” and the bone nodule formation result is reported as “no effect”.
For the compound `CC(c1cc2ccccc2s1)N(O)C(N)=O` (centres unmarked) [zileuton, N-(1-benzo[b]thien-2-ylethyl)-N-hydroxyurea], the “activity … in platelet-rich plasma” value in test [3] is recorded as “significantly reduces”. The “bone remodeling … compared to control rats” value in test [4] is “more extensive bone remodeling”.
Take 5-hydroxyeicosatetraenoic acid [5-HETE]: the “BMP2 induced increase in mouse calvaria thickness” value in test [7] is on record as “prevented”. In test [6], the alkaline phosphatase activity result is “reduce” and the bone nodule formation entry is given as “reduce”.
For `CC(Cc1ccc(O)c(O)c1)C(C)Cc1ccc(O)c(O)c1` (centres unmarked) [NDGA, nordihydroguaiaretic acid], in [1], the “fracture bridging / healing on radiographs” value is listed as “fractures healing faster”, the “greater peak torque than vehicle treated rats” value stood at 22% and the “mode of femur failure in torsional mechanical testing” value is given as “failed as boney unions”.
On to `CCc1cc(C(C)=O)c(O)cc1OCCCCCC(C)(C)c1nnn[nH]1` [LY-255283, 1-(5-ethyl-2-hydroxy-4-(6-methyl-6-(1H-tetrazol-5-yl)-heptyloxy)phenyl)ethanone], for which the “bone formation … to scaffold-only group” value in [2] is on record as “significantly more bone formation”. Also, in [4], the “mineralized tissue” value is “some evident mineralized tissue” and the “bone remodeling … compared to control rats” value was “more extensive bone remodeling”.
With `CCCCC/C=C\C\C=C/C=C/C=C/[C@@H](SC[C@H](NC(=O)CC[C@H](N)C(=O)O)C(=O)NCC(=O)O)[C@@H](O)CCCC(=O)O` [LTC4, leukotriene C4], the G292 cell proliferation entry in test [8] is “promote proliferation”. The “proliferation of primary rat calvaria (osteoblast) cultures” value in test [9] is reported as “no effect”. Besides, the Saos-2 cell proliferation entry in test [5] was “no effect”.
Regarding `CCCCC/C=C\C[C@@H](O)/C=C/C=C/C=C\[C@@H](O)CCCC(=O)O` [LTB4, leukotriene B4], the G292 cell proliferation entry in test [8] is listed as “promote proliferation”. The “BMP2 induced increase in mouse calvaria thickness” value in test [7] is listed as “prevented”. For the same compound, in test [6], the alkaline phosphatase activity entry is “reduce” and the bone nodule formation result was “reduce”. Also, the “proliferation of primary rat calvaria (osteoblast) cultures” value in [9] is on record as “reduces proliferation”. For the same compound, the Saos-2 cell proliferation entry in test [5] was “promote proliferation”.
On to `c1ccc(-c2ccc(OCCN3CCCC3)cc2)cc1` [SC-22716, 1-[2-(4-Phenylphenoxy)ethyl]pyrrolidine], for which the “bone formation … to scaffold-only group” value in test [2] is given as “significantly more bone formation”. Further, in test [4], the “mineralized tissue” value is on record as “more extensive mineralized tissue” and the “bone remodeling … compared to control rats” value was “more extensive bone remodeling”.
